From paper PMC11240257, “Engineered Methionine Adenosyltransferase Cascades for Metabolic Labeling of Individual DNA Methylomes in Live Cells” (Journal of the American Chemical Society, 2024)
Like-named read-outs stand apart in the source and are kept apart here.

Key:
Assay in all cases: HPLC-MS/MS quantitation of accumulated cofactor, steady state
Format in all cases: biochemical
Details in all cases: co-substrate ATP
mouse MAT2A [1] = molecular target: T1, mouse MAT2A (Mus musculus, UniProt Q3THS6)
T1 construct: recombinant, produced in vitro from bacterial cells; monogenic multimer without MAT2B
T1 sequence (Q3THS6 whole entry): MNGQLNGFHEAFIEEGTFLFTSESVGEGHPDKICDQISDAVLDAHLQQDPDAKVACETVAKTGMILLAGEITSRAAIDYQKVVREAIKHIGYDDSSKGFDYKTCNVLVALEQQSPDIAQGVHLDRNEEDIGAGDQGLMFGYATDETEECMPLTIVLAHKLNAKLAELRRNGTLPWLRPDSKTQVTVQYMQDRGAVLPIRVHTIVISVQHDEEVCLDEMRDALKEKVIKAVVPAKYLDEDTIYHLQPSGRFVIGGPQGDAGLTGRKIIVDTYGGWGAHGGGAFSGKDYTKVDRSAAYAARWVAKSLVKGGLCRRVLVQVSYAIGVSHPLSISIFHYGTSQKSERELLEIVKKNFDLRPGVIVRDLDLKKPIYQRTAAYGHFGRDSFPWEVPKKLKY
Text: (§1) HPLC-MS/MS quantitation of accumulated cofactor, steady state on mouse MAT2A

mouse MAT2A [2] = molecular target: T2, mouse MAT2A (Mus musculus, UniProt Q3THS6, I117A)
T2 construct: recombinant, produced in vitro from bacterial cells; monogenic multimer without MAT2B
T2 sequence (Q3THS6 whole entry I117A): as the sequence (Q3THS6 whole entry) above, with I117A counted along it
Text: as §1

mouse MAT2A [3] = molecular target: T3, mouse MAT2A (Mus musculus, UniProt Q3THS6, Q113N/I117A)
T3 construct: recombinant, produced in vitro from bacterial cells; monogenic multimer without MAT2B
T3 sequence (Q3THS6 whole entry Q113N/I117A): as the sequence (Q3THS6 whole entry) above, with Q113N, I117A counted along it
Text: as §1

mouse MAT2A [4] = molecular target: T4, mouse MAT2A (Mus musculus, UniProt Q3THS6, S114A/I117A)
T4 construct: recombinant, produced in vitro from bacterial cells; monogenic multimer without MAT2B
T4 sequence (Q3THS6 whole entry S114A/I117A): as the sequence (Q3THS6 whole entry) above, with S114A, I117A counted along it
Text: as §1

| Km (mouse MAT2A [1]; read-out: Km /) [mM] | Km (mouse MAT2A [2]; read-out: Km /) [mM] | Km (mouse MAT2A [3]; read-out: Km /) [mM] | Km (mouse MAT2A [4]; read-out: Km /) [mM] | SMILES | Km (mouse MAT2A [1]; read-out: Km / mM) [mM] | Km (mouse MAT2A [2]; read-out: Km / mM) [mM] | Km (mouse MAT2A [3]; read-out: Km / mM) [mM] | Km (mouse MAT2A [4]; read-out: Km / mM) [mM] |
| --- | --- | --- | --- | --- | --- | --- | --- | --- |
| 0.02 ± 0.003 | 0.645 ± 0.023 | 1.4 ± 0.56 | 1.4 ± 0.41 | CSCC[C@H](N)C(=O)O [Met, L-methionine] | – | – | – | – |
| – | – | – | – | [N-]=[N+]=NCCCC#CCSCC[C@H](N)C(=O)O [N3-Met, S-(6-azidohex-2-yn-1-yl)-L-homocysteine] | 1.03 ± 0.23 | 0.92 ± 0.1 | 1.44 ± 0.27 | 1.52 ± 0.043 |
